pIC50: −log10 of the molar value.
Target: T1, Core protein (Hepacivirus C, UniProt Q2Q167)
T1 sequence (Q2Q167 whole entry): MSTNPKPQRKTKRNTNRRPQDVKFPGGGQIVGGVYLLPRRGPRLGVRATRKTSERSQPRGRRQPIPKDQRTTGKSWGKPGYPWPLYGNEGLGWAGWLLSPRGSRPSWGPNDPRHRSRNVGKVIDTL
Assay: HCV core protein dimerization inhibitors, dose response, biochemical, TR-FRET (AID 2159)

Structure (SMILES) | pIC50
Cc1sccc1C1C(C#N)C(=N)SC(=N)C1C#N (configuration not stated) [2,6-diamino-4-(2-methyl-3-thiophenyl)-4H-thiopyran-3,5-dicarbonitrile] | < 4.30
COc1cccc(CN=Nc2ncnc3c2[nH]c2ccc(C)cc23)c1OC [SMR000439805] | < 4.30
CCOC1=CC(=Cc2c(-c3ccccc3)[nH]n(-c3nc(-c4ccc(Br)cc4)cs3)c2=O)C=CC1=O | < 4.30
O=C1Nc2ccc([N+](=O)[O-])cc2/C1=N/NC(=O)c1cc(-c2ccccc2Cl)nc2ccccc12 [2-(2-chlorophenyl)-N'-(2-keto-5-nitro-indol-3-yl)cinchoninohydrazide] | < 4.30
Cc1cc(C)n2c(SCC(=O)C(C#N)c3nc4ccccc4[nH]3)nnc2n1 (configuration not stated) [2-(1,3-dihydrobenzimidazol-2-ylidene)-4-[(5,7-dimethyl-[1,2,4]triazolo[4,3-a]pyrimidin-3-yl)sulfanyl]-3-oxidanylidene-butanenitrile] | < 4.30
Cc1cccc2c1NC(=O)C2=NNc1ccc(S(=O)(=O)Nc2ccc(Cl)cc2)cc1[N+](=O)[O-] [MLS000393762] | < 4.30
O=[N+]([O-])c1cc([CH+][N-]n2c(O)csc2=S)ccc1Cl [3-[(4-chloranyl-3-nitro-phenyl)methylideneamino]-2-sulfanylidene-1,3-thiazolidin-4-one] | < 4.30

— BindingDB's records for doi:10.7270/Q29Z939R (The Scripps Research Institute Molecular Screening Center, 2009)
